Source: patent publication US11542266B1, “Substituted piperidines as BTK inhibitors” (HAISCO PHARMACEUTICALS PTE. LTD., priority 2019, dated 2023)

Columns and labels:
Mino cells = assay: Inhibition of cell proliferation, Mino cells (Cell Viability Assay, 72 h); assay type: cell-based, human; conditions: Homo sapiens
How it was run: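 RPMI1640 + 10% FBS cultures seeded at 20000/well (SU-DHL-4) or 5000/well (Mino, SU-DHL-6), exposed to compound dilutions in triplicate for 72 h at 37 °C, 5% CO2, DMSO vehicle control. Viability read by luminescent reagent; IC50 from dose-response and Max inhi. % = (1 − T72 treated/T72 vehicle)×100 at top concentration.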

SU-DHL-4 cells = assay: Inhibition of cell proliferation, SU-DHL-4 cells (Cell Viability Assay, 72 h); assay type: cell-based, human; conditions: Homo sapiens
Method: (§1) SU-DHL-4, Mino, and SU-DHL-6 cells, in the culture medium of RPMI1640+10% FBS, were cultured in an incubator at 37° C. under 5% CO2. Cells were plated in a 96-well plate. Specifically, SU-DHL-4 cells were at 20000/well, Mino and SU-DHL-6 cells were at 5000/well, with 90 μL/well. 10 μL of the compounds at different concentrations were added to each well. There were 3 replicate wells for each concentration, and the last column, added with DMSO, was used as a vehicle control group. The cultures were continued for 72 hours at 37° C. under 5% CO2. After 72 hours, 100 μL of detection reagent (Cell Viability Assay, Promega, G7573) was added to each well, and the cultures were uniformly mixed for 2 minutes, and incubated at room temperature for 10 minutes. The fluorescence signal value was measured with a microplate reader (PHERAstar FSX). The IC50 value of the compound on cell proliferation inhibition was calculated using Origin 9.2 software, and the inhibition rate at the highest concentration of the compound (Max inhi. %) was calculated according to formula (1). Max inhi. %=(1-T72 administration/T72 vehicle)×100 Formula (1).

SU-DHL-6 cells = assay: Inhibition of cell proliferation, SU-DHL-6 cells (Cell Viability Assay, 72 h); assay type: cell-based; conditions: Homo sapiens
Method: as §1

[1] = Pharmacokinetic experiment in rats (i.g. vehicle DMSO/Solutol/PEG-400/SBE-β-CD); assay type: in vivo; conditions: Sprague-Dawley (SD), rat, plasma, po, male SD rats; for bioavailability: i.g. 20 mg/kg (DMSO/Solutol/PEG-400/SBE-β-CD) vs i.v. 5 mg/kg; for AUC(0-t): i.g. 20 mg/kg, vehicle 5% DMSO + 5% Solutol + 30% PEG-400 + 60% (20%SBE-β-CD)
Method: (§2) Objective: In this experiment, a single dose of each test compound was administered to SD rats intravenously and intragastrically, the concentrations of the test compound in plasma of rats were measured, and the pharmacokinetic characteristics and bioavailability of the test compound in rats were evaluated.
Experimental animals: Male SD rats, 200-250 g, 6-8 weeks old, 6 rats/compound. The experimental animals were purchased from CHENGDU DOSSY EXPERIMENTAL ANIMALS CO., LTD.
(§3) Experimental method: On the day of the experiment, 6 SD rats were randomly grouped according to their body weight. The animals were fasted with water available for 12 to 14 hours one day before the administration of a test compound, and were fed 4 hours after the administration.
Sampling: Before and after the administration, 0.1 mL of blood was taken from the orbit of the rats under isoflurane anesthesia, and placed in an EDTAK2 centrifuge tube. Centrifugation was carried out at 5000 rpm at 4° C. for 10 min and the plasma was collected.
Time points for plasma collection in G1 group: 0, 5 min, 15 min, 30 min, 1 h, 2 h, 4 h, 6 h, 8 h, and 24 h.
Time points for plasma collection in G2 group: 0, 15 min, 30 min, 1 h, 2 h, 4 h, 6 h, 8 h, and 24 h.
(§4) Before analysis and detection, all samples were stored at −80° C. The samples were analyzed quantitatively by LC-MS/MS.

[2] = Pharmacokinetic experiment in rats (i.g. vehicle 0.5% MC); assay type: in vivo; conditions: Sprague-Dawley (SD), rat, po; male SD rats, plasma, i.g. 20 mg/kg, vehicle 0.5% MC; read-out: AUC0-t
Method: as §2
Experimental animals: Male SD rats, 200-250 g, 6-8 weeks old, 6 rats/test compound. The experimental animals were purchased from CHENGDU DOSSY EXPERIMENTAL ANIMALS CO., LTD.
as §3
Sampling: Before and after the administration, 0.1 ml of blood was taken from the orbit of the rats under isoflurane anesthesia, and placed in an EDTAK2 centrifuge tube. Centrifugation was carried out at 5000 rpm at 4° C. for 10 min and the plasma was collected.
Time points for plasma collection in G1 group: 0, 5 m, 15 m, 30 m, 1 h, 2 h, 4 h, 6 h, 8 h, and 24 h.
Time points for plasma collection in G2 group: 0, 15 m, 30 m, 1 h, 2 h, 4 h, 6 h, 8 h, and 24 h.
as §4

SMILES: Nc1ncnc2c1c(-c1ccc(Oc3ccccc3)cc1)nn2C1CCN(C2CN(C3CCN(C4CCN(C5CCN(c6ccc7c(c6)C(=O)N(C6CCC(=O)NC6=O)C7=O)CC5)CC4)CC3)C2)CC1 (stereo not drawn) [Compound 11, 5-[4-[4-[4-[3-[4-[4-amino-3-(4-phenoxyphenyl)pyrazolo[3,4-d]pyrimidin-1-yl]-1-piperidyl]azetidin-1-yl]-1-piperidyl]-1-piperidyl]-1-piperidyl]-2-(2,6-dioxo-3-piperidyl)isoindoline-1,3-dione Hexatrifluoroacetate]
- IC50 (Mino cells): 114 nM
- IC50 (SU-DHL-4 cells): 189 nM
- IC50 (SU-DHL-6 cells): 109 nM

SMILES: Nc1ncnc2c1c(-c1ccc(Oc3ccccc3)cc1)nn2[C@@H]1CCN(C2CN(C3CN(c4ccc5c(c4)C(=O)N(C4CCC(=O)NC4=O)C5=O)C3)C2)C[C@H]1F (stereo partly drawn) [Compound 39, 5-(3-((3R,4R)-4-(4-amino-3-(4-phenoxyphenyl)-1H-pyrazolo[3,4-d]pyrimidin-1-yl)-3-fluoropiperidin-1-yl)-[1,3′-biazetidin]-1′-yl)-2-(2,6-dioxopiperidin-3-yl)isoindoline-1,3-dione]
- IC50 (Mino cells): 41 nM
- bioavailability [1]: 9.1 ± 1.5%
- AUC(0-t) [1]: 2830 ± 474 ng·h/mL

SMILES: Nc1ncnc2c1c(-c1ccc(Oc3ccccc3)cc1)nn2C1CCN(CC2CCN(C3CCN(c4ccc5c(c4)C(=O)N(C4CCC(=O)NC4=O)C5=O)CC3)CC2)CC1 (stereo not drawn) [Compound 9, 5-(4-((4-(4-amino-3-(4-phenoxyphenyl)-1H-pyrazolo[3,4-d]pyrimidin-1-yl)piperidin-1-yl)methyl)-[1,4′-bipiperidin]-1′-yl)-2-(2,6-dioxopiperidin-3-yl)isoindoline-1,3-dione tetratrifluoroacetate]
- IC50 (Mino cells): 367 nM
- IC50 (SU-DHL-4 cells): 295 nM
- IC50 (SU-DHL-6 cells): 155 nM
- AUC(0-t) [2]: 8.93 ± 4.3 ng·h/mL

SMILES: Nc1ncnc2c1c(-c1ccc(Oc3ccccc3)cc1)nn2C1CCN(C2CCN(C3CN(c4cc5c(cc4F)C(=O)N(C4CCC(=O)NC4=O)C5=O)C3)CC2)CC1 (stereo not drawn) [Compound 32, 5-(3-(4-(4-amino-3-(4-phenoxyphenyl)-1H-pyrazolo[3,4-d]pyrimidin-1-yl)-[1,4′-bipiperidin]-1′-yl)azetidin-1-yl)-2-(2,6-dioxopiperidin-3-yl)-6-fluoroisoindoline-1,3-dione]
- IC50 (Mino cells): 188 nM
- IC50 (SU-DHL-4 cells): 330 nM
- IC50 (SU-DHL-6 cells): 393 nM
- AUC(0-t) [2]: 322 ± 64 ng·h/mL

SMILES: Nc1ncnc2c1c(-c1ccc(Oc3ccccc3)cc1)nn2[C@@H]1CCN(C2CN(C3CN(c4ccc5c(c4)C(=O)N(C4CCC(=O)NC4=O)C5=O)C3)C2)C[C@@H]1F (stereo partly drawn) [Compound 38, 5-[3-[3-[(3S,4R)-4-[4-amino-3-(4-phenoxyphenyl)pyrazolo[3,4-d]pyrimidin-1-yl]-3-fluoro-1-piperidyl]azetidin-1-yl]azetidin-1-yl]-2-(2,6-dioxo-3-piperidyl)isoindoline-1,3-dione]
- IC50 (Mino cells): 81 nM
- IC50 (SU-DHL-4 cells): 469 nM
- IC50 (SU-DHL-6 cells): 888 nM
- bioavailability [1]: 13.3 ± 5.2%
- AUC(0-t) [1]: 7260 ± 2860 ng·h/mL

SMILES: Nc1ncnc2c1c(-c1ccc(Oc3ccccc3)cc1)nn2[C@H]1CCN(C2CN(C3CN(c4ccc5c(c4)C(=O)N(C4CCC(=O)NC4=O)C5=O)C3)C2)C[C@H]1F (stereo partly drawn) [Compound 41, 5-(3-((3R,4S)-4-(4-amino-3-(4-phenoxyphenyl)-1H-pyrazolo[3,4-d]pyrimidin-1-yl)-3-fluoropiperidin-1-yl)-[1,3′-biazetidin]-1′-yl)-2-(2,6-dioxopiperidin-3-yl)isoindoline-1,3-dione]
- IC50 (Mino cells): 10.3 nM
- IC50 (SU-DHL-4 cells): 329 nM
- IC50 (SU-DHL-6 cells): 670 nM
- bioavailability [1]: 10.8 ± 1.5%
- AUC(0-t) [1]: 7910 ± 1100 ng·h/mL

SMILES: Nc1ncnc2c1c(-c1ccc(Oc3ccccc3)cc1)nn2C1CCN(C2CCN(C3CCN(c4ccc5c(c4)C(=O)N(C4CCC(=O)NC4=O)C5=O)CC3)CC2)CC1 (stereo not drawn) [Compound 2, 5-[4-[4-[4-[4-amino-3-(4-phenoxyphenyl)pyrazolo[3,4-d]pyrimidin-1-yl]-1-piperidyl]-1-piperidyl]-1-piperidyl]-2-(2,6-dioxo-3-piperidyl)isoindoline-1,3-dione]
- IC50 (Mino cells): 633 nM
- IC50 (SU-DHL-4 cells): 41 nM
- IC50 (SU-DHL-6 cells): 26 nM
- AUC(0-t) [2]: 18.6 ± 2.8 ng·h/mL

SMILES: Nc1ncnc2c1c(-c1ccc(Oc3ccccc3)cc1)nn2C1CCN(C2CCN(C3CCN(C4CCN(c5ccc6c(c5)C(=O)N(C5CCC(=O)NC5=O)C6=O)CC4)CC3)CC2)CC1 (stereo not drawn) [Compound 12, 5-[4-[4-[4-[4-[4-amino-3-(4-phenoxyphenyl)pyrazolo[3,4-d]pyrimidin-1-yl]-1-piperidyl]-1-piperidyl]-1-piperidyl]-1-piperidyl]-2-(2,6-dioxo-3-piperidyl)isoindoline-1,3-dione pentatrifluoroacetate]
- IC50 (Mino cells): 183 nM
- IC50 (SU-DHL-4 cells): 56 nM
- IC50 (SU-DHL-6 cells): 106 nM

SMILES: Nc1ncnc2c1c(-c1ccc(Oc3ccccc3)cc1)nn2[C@H]1CCN(C2CCN(C3CN(c4ccc5c(c4)C(=O)N(C4CCC(=O)NC4=O)C5=O)C3)CC2)C[C@@H]1F (stereo partly drawn) [Compound 44, 5-(3-((3S,4S)-4-(4-amino-3-(4-phenoxyphenyl)-1H-pyrazolo[3,4-d]pyrimidin-1-yl)-3-fluoro-[1,4′-bipiperidin]-1′-yl)azetidin-1-yl)-2-(2,6-dioxopiperidin-3-yl)isoindoline-1,3-dione]
- IC50 (Mino cells): 15 nM
- bioavailability [1]: 5.73 ± 0.64%
- AUC(0-t) [1]: 877 ± 98 ng·h/mL

SMILES: Nc1ncnc2c1c(-c1ccc(Oc3ccccc3)cc1)nn2[C@H]1CCN(C2CN(C3CN(c4ccc5c(c4)C(=O)N(C4CCC(=O)NC4=O)C5=O)C3)C2)C[C@@H]1F (stereo partly drawn) [Compound 43, 5-[3-[3-[(3S,4S)-4-[4-amino-3-(4-phenoxyphenyl)pyrazolo[3,4-d]pyrimidin-1-yl]-3-fluoro-1-piperidyl]azetidin-1-yl]azetidin-1-yl]-2-(2,6-dioxo-3-piperidyl)isoindoline-1,3-dione]
- IC50 (Mino cells): 10 nM
- IC50 (SU-DHL-4 cells): 330 nM
- IC50 (SU-DHL-6 cells): 407 nM
- bioavailability [1]: 11 ± 2.2%
- AUC(0-t) [1]: 4500 ± 886 ng·h/mL

SMILES: Nc1ncnc2c1c(-c1ccc(Oc3ccccc3)cc1)nn2C1CCN(CC2CCN(C3CN(c4ccc5c(c4)C(=O)N(C4CCC(=O)NC4=O)C5=O)C3)CC2)CC1 (stereo not drawn) [Compound 6, 5-(3-(4-((4-(4-amino-3-(4-phenoxyphenyl)-1H-pyrazolo[3,4-d]pyrimidin-1-yl)piperidin-1-yl)methyl)piperidin-1-yl)azetidin-1-yl)-2-(2,6-dioxopiperidin-3-yl)isoindoline-1,3-dione tritrifluoroacetate]
- IC50 (Mino cells): 421 nM
- IC50 (SU-DHL-6 cells): 166 nM
- AUC(0-t) [2]: 328 ± 41 ng·h/mL
